# Laboratory results taken from US20030125252A1, “Compositions and methods for affecting osteogenesis” (priority 2002, published 2003).
# Legend:
# RARβ = biological target: T1, RARβ (Homo sapiens, UniProt P10826); settings: compared with RARα; cited from earlier work
# T1 sequence (P10826 1-455): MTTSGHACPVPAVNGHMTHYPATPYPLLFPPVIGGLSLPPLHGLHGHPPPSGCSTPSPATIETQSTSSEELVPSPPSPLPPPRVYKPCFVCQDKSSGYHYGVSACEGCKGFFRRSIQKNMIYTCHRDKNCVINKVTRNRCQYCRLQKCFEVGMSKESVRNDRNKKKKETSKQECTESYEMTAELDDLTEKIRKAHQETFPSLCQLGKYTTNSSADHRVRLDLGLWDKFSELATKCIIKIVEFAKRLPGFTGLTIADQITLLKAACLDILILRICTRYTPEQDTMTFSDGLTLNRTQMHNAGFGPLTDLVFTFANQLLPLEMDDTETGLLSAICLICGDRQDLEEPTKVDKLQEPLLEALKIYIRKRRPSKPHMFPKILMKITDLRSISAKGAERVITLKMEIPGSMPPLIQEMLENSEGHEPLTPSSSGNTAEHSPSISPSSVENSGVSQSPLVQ
# normal human osteoblasts [1] = assay: Normal human osteoblast cultures, mineralization (alizarin red S, Von Kossa); assay type: cell-based; settings: 1000 nM, versus control cultures
# [2] = test system: OC mRNA in MC3T3-E1 cultures; assay: Northern blotting of osteocalcin (OC) mRNA; assay type: cell-based, mouse; settings: MC3T3-E1, 1000 nM
# Protocol: Total RNA was isolated with TriPure Isolation Reagent (Roche Molecular Biochemicals) from MC3T3-E1 cultures under mineralizing conditions at various times after culture initiation. RNA samples were separated by electrophoresis of 15 μg aliquots on a 1% agarose-formaldehyde gel. RNA was then transferred to a Hybond-N nylon membrane (Amersham-Pharmacia Biotech) and cross-linked by UV irradiation. Blots were pre-hybridized in Ultrahyb (Ambion) at 45° C. for at least 1 hr. A radiolabeled rat cDNA probe to OC (provided by J. E. Aubin, University of Toronto) was synthesized by random priming. Hybridizations were carried out overnight in Ultrahyb at 42° C. Following hybridization, blots were washed twice with 2×SSC, 0.1% SDS containing buffer for 5 min each at 42° C., followed by two washes in 0.1×SSC, 0.1% SDS for 15 min each at 42° C. and exposed to BioMax X-ray film at −80° C. for 24 hr.
# MC3T3-E1 cells [3] = assay: Histological analysis of mineralization (Alizarin Red S) in MC3T3-E1 cultures; assay type: cell-based, mouse; settings: for mineralization (Alizarin Red S staining), concentration dependence: MC3T3-E1 mineralizing cultures
# Protocol: MC3T3-E1 cells were maintained in Minimum Essential Medium Eagle-modification supplemented with 10% fetal bovine serum (Gibco-BRL) and subcultured as previously described (20). For mineralization, cultures of MC3T3-E1 cells were supplemented with ascorbate (50 μg/ml) and β-glycerolphosphate (β-GP, 10 mM), and the medium was changed every 3 days. These compounds, in addition to ligands, were added to the media once the cultures had reached confluence. MC3T3-637OC stable transfectants were cultured in the same manner and supplemented with active G418 (700 μg/ml). COSP7 cells were cultured in Dulbecco's Modified Eagle's Medium containing 10% FBS and antibiotics. All-trans RA was obtained from Sigma. 4-[E-2-(5,6,7,8-Tetrahydro-5,5,8,8-tetramethyl-2-naphthalenyl)-1-propenyl] benzoic acid (TTNPB), 1,25 VD3 and 9-cis RA were purchased from BioMol.
# MC3T3-E1 cells were seeded at 2×10^4 cells/well into 12-well plates, and medium was changed at three-day intervals for a period of 4 weeks. Matrix calcification within the cultures was measured by histological staining with Alizarin Red S (Sigma). Cells were fixed for 10 min in equal parts of 40% formaldehyde and methanol, rinsed briefly in 50% ethanol followed by a rinse in water. Samples were then stained with Alizarin Red S (2% w/v, pH 4.2) for 2 min, followed by a 30-second wash in acetone and allowed to air dry. A Zeiss SV11 dissection microscope connected to a Sony DXC-950 video camera was used to capture digital images. The extent of mineralization for each culture was determined by calculating the percentage of surface area occupied by Alizarin Red S-stained material using Northern Eclipse image analysis software (Empix Imaging Inc.). All images were captured from the center of the well at low magnification, a field which represents ˜65% of the total surface area of the well.
# MC3T3-E1 cells [4] = assay: Cell death, propidium iodide (PI) staining; assay type: cell-based, mouse; settings: for number of PI-stained cells (cell death): MC3T3-E1, single ligand
# Protocol: Cultures of MC3T3-E1 were initiated at sub-confluence (1-2×10^4 cells/well) in 24-well plates and allowed to reach confluence prior to the addition of ligands, β-GP and ascorbate. […] Cells were incubated in the presence of the dye for 5 minutes, and images were acquired using epifluorescence with a XF35 filter set (Omega Optical) at low magnification (50×). The number of fluorescent-positive cells per microscopic field (3 mm^2) was counted using Northern Eclipse imaging software.
# RARα = biological target: T2, RARα (Homo sapiens, UniProt P10276); settings: cited from earlier work
# T2 sequence (P10276 1-462): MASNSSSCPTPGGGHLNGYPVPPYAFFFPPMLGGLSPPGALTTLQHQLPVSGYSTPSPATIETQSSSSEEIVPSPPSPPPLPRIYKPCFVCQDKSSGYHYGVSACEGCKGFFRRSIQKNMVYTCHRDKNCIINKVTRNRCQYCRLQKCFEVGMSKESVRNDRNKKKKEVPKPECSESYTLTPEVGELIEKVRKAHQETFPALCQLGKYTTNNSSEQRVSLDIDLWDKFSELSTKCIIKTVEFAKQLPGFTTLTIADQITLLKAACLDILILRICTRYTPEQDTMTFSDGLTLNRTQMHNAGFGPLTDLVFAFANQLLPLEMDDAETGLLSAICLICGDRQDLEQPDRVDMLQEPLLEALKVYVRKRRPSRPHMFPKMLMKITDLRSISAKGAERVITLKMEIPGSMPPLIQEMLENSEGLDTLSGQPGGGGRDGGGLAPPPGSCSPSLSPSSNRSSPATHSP
# RARγ = biological target: T3, RARγ (Homo sapiens, UniProt P13631); settings: compared with RARα; cited from earlier work
# T3 sequence (P13631 1-454): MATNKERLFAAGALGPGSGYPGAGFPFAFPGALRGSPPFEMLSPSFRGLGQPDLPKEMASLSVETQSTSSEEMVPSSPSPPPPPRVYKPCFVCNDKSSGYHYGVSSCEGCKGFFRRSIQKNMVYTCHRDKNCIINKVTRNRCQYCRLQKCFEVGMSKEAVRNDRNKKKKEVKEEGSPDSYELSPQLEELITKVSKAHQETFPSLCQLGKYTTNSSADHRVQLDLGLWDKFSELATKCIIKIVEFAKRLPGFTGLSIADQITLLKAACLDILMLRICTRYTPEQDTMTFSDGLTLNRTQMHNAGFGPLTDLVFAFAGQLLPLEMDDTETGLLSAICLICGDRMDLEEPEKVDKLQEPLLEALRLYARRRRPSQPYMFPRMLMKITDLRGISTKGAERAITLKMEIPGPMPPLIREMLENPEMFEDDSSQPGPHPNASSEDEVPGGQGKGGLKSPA
# normal human osteoblasts [5] = assay: Normal human osteoblast cultures, cell death and cell number (PI, Hoechst 33342); assay type: cell-based; settings: 1000 nM, 10 days, versus control cultures
# Protocol: Normal human osteoblast (NHO) were derived from the long bones of a human donor. The cells were purchased from Clonetics (BioWhittaker Company) and cultured according to their protocols with media and serum obtained from Clonetics. Ligands were added to the cell cultures once the cells had reached confluence. Cells were stained with Hoechst 33342, a DNA stain, to allow visualization of the cell nuclei and allow assessment of cell number (the cell nuclei appear white) (FIGS. 7A-C). FIGS. 7D-F the cells were stained with propidium iodide (a membrane impermeant nucleic acid stain) to allow visualization of dead or dying cells.
# MC3T3-E1 cells [6] = assay: Cell viability, MTT assay; assay type: cell-based, mouse; settings: for cell viability: MC3T3-E1 early stage cultures, data not shown
# Protocol: Cell viability was measured in MC3T3-E1 cells using the 3-[4,5-dimethylthiazol-2-yl]-2,5-diphenyltetrazolium bromide (MTT) assay in 96-well plates as described in the Roche Molecular Biochemicals product information. Briefly, cells were cultured to confluence, at which time various concentrations and combinations of ligands were added to the cultures followed by incubation for 24 to 60 hr. MTT substrate to a final concentration of 0.5 mg/ml was added to each well and the incubation was extended for a further 4 hr. At this time, cells were solubilized overnight in 10% sodium dodecyl sulfate (SDS) in 0.01 M HCl and absorbance was measured at 595 nm using a 650 nm reference wavelength.
smiles,measurement,setting,value
"Cc1ccc(C2=CC(C)(C)Oc3c(Br)cc(C(=O)Nc4ccc(C(=O)O)c(F)c4)cc32)cc1 [AGN194301, 2-Fluoro-4-[(1-(8-bromo-2,2-dimethyl-4-(4-methylphenyl)-2-H-chromen-6-yl)-methanoyl)-amino]-benzoic acid]",affinity for RARβ,RARβ,lower affinity
same,"mineral deposition (Von Kossa, calcium phosphate)",normal human osteoblasts [1]; 19 days of ligand treatment,stimulates mineral deposition
same,OC expression,[2],stimulated OC expression
same,culture time after which strong OC mRNA expression became evident,[2]; wild-type cultures 18 days,12 days
same,bone formation relative to control cultures,"MC3T3-E1 cells [3]; 100 nM AGN194301 added to cultures treated with 10 nM 1,25 VD3",~70%
same,increase of Alizarin Red S staining over untreated controls,"MC3T3-E1 cells [3]; MC3T3-E1, 28 days, 10 nM",approximately 3 fold
same,culture surface area stained with Alizarin Red S,"MC3T3-E1 cells [3]; MC3T3-E1, 28 days, 1 μM, control cultures approximately 18%",approximately 95%
same,"mineralization (Alizarin Red S staining), concentration dependence",MC3T3-E1 cells [3],concentration-dependent increase in Alizarin Red S staining
same,"number of PI-positive cells relative to 1,25 VD3 treated culture","MC3T3-E1 cells [4]; AGN194301 added to 1,25 VD3-treated cultures, 36 hr",less than 20%
same,appearance of PI-positive cells,"MC3T3-E1 cells [4]; MC3T3-E1, AGN194301 alone",no appreciable effect
same,affinity for RARα,RARα,high affinity
same,antagonism of RARα,RARα,potent antagonist
same,affinity for RARγ,RARγ,lower affinity
"CC1=C(/C=C/C(C)=C/C=C/C(C)=C/C(=O)O)C(C)(C)CCC1 [all-trans RA, all-trans retinoic acid]",alizarin red staining,normal human osteoblasts [1]; fifteen day old cultures,reduced alizarin red staining
same,cell death (PI staining),normal human osteoblasts [5],increased cell death
same,cell number (Hoechst 33342),normal human osteoblasts [5],decreased cell number
same,number of PI-stained cells (cell death),MC3T3-E1 cells [4],stimulate cell death
same,cell viability,MC3T3-E1 cells [6],concentration-dependent decrease in cell viability
"C/C(=C\c1ccc(C(=O)O)cc1)c1ccc2c(c1)C(C)(C)CCC2(C)C [TTNPB, 4-[E-2-(5,6,7,8-Tetrahydro-5,5,8,8-tetramethyl-2-naphthalenyl)-1-propenyl] benzoic acid]",number of PI-stained cells (cell death),MC3T3-E1 cells [4],stimulate cell death
same,cell viability,MC3T3-E1 cells [6],concentration-dependent decrease in cell viability
"CC1=C(/C=C/C(C)=C\C=C\C(C)=C\C(=O)O)C(C)(C)CCC1 [9-cis RA, 9-cis retinoic acid]",number of PI-stained cells (cell death),MC3T3-E1 cells [4],stimulate cell death
same,cell viability,MC3T3-E1 cells [6],concentration-dependent decrease in cell viability
"C=C1/C(=C\C=C2/CCC[C@]3(C)[C@@H]([C@H](C)CCCC(C)(C)O)CC[C@@H]23)C[C@@H](O)C[C@@H]1O [1,25 VD3, 1α,25-dihydroxy vitamin-D3]",amount of Alizarin Red-staining,"MC3T3-E1 cells [3]; MC3T3-E1, 28 days, 0.1 nM",decrease in the amount of Alizarin Red-staining
same,"mineralization (Alizarin Red S staining), concentration dependence",MC3T3-E1 cells [3],concentration-dependent decrease in mineralization
same,"potency in raising PI-stained bodies, compared with the RAR-agonist","MC3T3-E1 cells [4]; MC3T3-E1, over the concentration range examined",greater potency than the RAR-agonist
same,number of PI-stained cells (cell death),MC3T3-E1 cells [4],greater number of PI-stained bodies
same,cell viability (MTT),"MC3T3-E1 cells [6]; MC3T3-E1, 60 hr, individual ligand",decreased cell viability
